Test systems include HCC-2998 colon; UO-31 renal; NCI-H226 lung; 786-0 renal; IGROV1 ovarian; UACC-62 melanoma; OVCAR-8 ovarian; PC-3 prostate; DU-145 prostate.
Common to all, as to assay: growth of human tumour cells (NCI), 48 h

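Exposure lasted 48 hours, with cells grown in 96-well plates and compounds tested at five concentrations. GI50 is the concentration that inhibits growth by half. The concentration for full growth arrest is given as TGI.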

In the case of `C=CCN=C1N=C(CC(=O)OCC)CS1`, the TGI with HCC-2998 colon, with UO-31 renal, in the test with NCI-H226 lung, with 786-0 renal, in the test with IGROV1 ovarian and with UACC-62 melanoma was greater than 100 µM throughout. This compound gave a TGI in the test with OVCAR-8 ovarian greater than 100 µM.
With `O=C(Nc1nccs1)c1cc(C2=CC=CC([N+](=O)[O-])C=C2)nc(=S)[nH]1` (stereo not drawn), the TGI with HCC-2998 colon, in the test on UO-31 renal, in the test on NCI-H226 lung, in the test on 786-0 renal, in the test with IGROV1 ovarian and with UACC-62 melanoma was greater than 100 µM each time. This compound also yielded a TGI with OVCAR-8 ovarian greater than 100 µM.
With `COc1cc2c(cc1OC)[C@@H](C(O)c1ccccc1)NCC2` (stereo partly drawn), the TGI with HCC-2998 colon, in the test on UO-31 renal, in the test with NCI-H226 lung, with 786-0 renal, in the test with IGROV1 ovarian and in the test on UACC-62 melanoma was greater than 100 µM each time. This compound also yielded a TGI in the test on OVCAR-8 ovarian greater than 100 µM.
Consider `Clc1cc(Cl)cc(N2N=C(c3cccc(Nc4ccncc4)c3)CC2c2ccc(Br)cc2)c1` (stereo not drawn), for which the GI50 was 1.77 µM in the test with HCC-2998 colon; 1.66 µM in the test on PC-3 prostate; 1.84 µM with DU-145 prostate; 1.39 µM with UO-31 renal; 1.74 µM in the test with 786-0 renal; 1.74 µM with IGROV1 ovarian. For the same compound, the GI50 with UACC-62 melanoma is 1.68 µM; in the test on OVCAR-8 ovarian, 2.16 µM. The TGI with HCC-2998 colon turned out to be 3.2 µM; with PC-3 prostate, 3.31 µM; with DU-145 prostate, 3.41 µM; in the test with UO-31 renal, 2.69 µM; in the test on 786-0 renal, 3.32 µM; with IGROV1 ovarian, 3.3 µM. Moreover, the TGI in the test on UACC-62 melanoma was found to be 3.13 µM; in the test with OVCAR-8 ovarian, 4.87 µM.
For `O=Cc1[nH]c2ccccc2c1Br`, the TGI was greater than 100 µM in the test on HCC-2998 colon; 97 µM with UO-31 renal; greater than 100 µM with NCI-H226 lung; 66.3 µM in the test on 786-0 renal; 70.2 µM in the test on IGROV1 ovarian; 33.7 µM in the test with UACC-62 melanoma. In the test on OVCAR-8 ovarian, this compound showed a TGI of 64.4 µM.
As to `Cc1nn2c(/C=C3/C(=O)Nc4ccccc43)c(-c3ccc(Cl)cc3)nc2s1`, the GI50 is 12.2 µM in the test with PC-3 prostate; greater than 50 µM in the test with UO-31 renal; 10.1 µM with NCI-H226 lung; 9.95 µM in the test with 786-0 renal; 39.1 µM in the test on IGROV1 ovarian; 10.2 µM with UACC-62 melanoma. Moreover, the GI50 in the test on OVCAR-8 ovarian was 31.9 µM. Besides, the TGI with PC-3 prostate is 32.2 µM; in the test on UO-31 renal it was greater than 50 µM; with NCI-H226 lung it was 27.5 µM; in the test with 786-0 renal it was 24.2 µM; in the test on IGROV1 ovarian, greater than 50 µM; in the test on UACC-62 melanoma, 21.4 µM. Further, in the test on OVCAR-8 ovarian, the TGI was greater than 50 µM.
For `COc1ccc(/C=C2\CNC/C(=C\c3ccc(OC)cc3)C2=O)cc1`, the TGI in the test with HCC-2998 colon, with UO-31 renal, in the test on NCI-H226 lung, in the test on 786-0 renal, in the test on IGROV1 ovarian and in the test with UACC-62 melanoma was greater than 100 µM in each case. This compound showed a TGI with OVCAR-8 ovarian of 35.2 µM.
As to `COc1ccc(/C=C(\C#N)c2cc(OC)c3c(c2)OCO3)cc1`, the GI50 in the test on HCC-2998 colon is 0.0264 µM; in the test on PC-3 prostate, 0.0101 µM; with DU-145 prostate, 0.0256 µM; with UO-31 renal it was 0.251 µM; with NCI-H226 lung, 0.0249 µM; in the test on 786-0 renal it was less than 0.0215 µM. Besides, the values for the GI50 with IGROV1 ovarian, in the test with UACC-62 melanoma and with OVCAR-8 ovarian were 0.0212 µM, less than 0.01 µM and 0.026 µM, respectively. For the same compound, the TGI was 1.41 µM in the test with HCC-2998 colon; 38.1 µM in the test on PC-3 prostate; 0.186 µM with DU-145 prostate; greater than 55.8 µM in the test with UO-31 renal; 2.56 µM with NCI-H226 lung; 17.2 µM in the test on 786-0 renal. Further, the TGI in the test with IGROV1 ovarian was 32 µM; with UACC-62 melanoma it was greater than 100 µM; in the test on OVCAR-8 ovarian it was 34.5 µM.
Consider `COc1ccc(C=NC23CC4CC(CC(C4)C2)C3)cc1`, for which the TGI with HCC-2998 colon, in the test with UO-31 renal, with NCI-H226 lung, in the test with 786-0 renal, with IGROV1 ovarian and with UACC-62 melanoma was greater than 100 µM each time. The compound also gave a TGI in the test with OVCAR-8 ovarian greater than 100 µM.
For `O=C(c1ccc(NCN2C(=O)CCC2=O)cc1)c1ccc(NCN2C(=O)CCC2=O)cc1`, the TGI in the test on HCC-2998 colon, with UO-31 renal, with 786-0 renal, in the test with IGROV1 ovarian, with UACC-62 melanoma and in the test on OVCAR-8 ovarian was greater than 100 µM each time.
Consider `O=C(O)c1ccc([N+](=O)[O-])c2c(=O)c3ccccc3[nH]c12`, for which the TGI in the test on HCC-2998 colon, in the test on UO-31 renal, in the test on 786-0 renal, with IGROV1 ovarian, in the test with UACC-62 melanoma and in the test on OVCAR-8 ovarian was greater than 100 µM each time.
Consider `COc1ccc(C(=O)/C=C/c2cc(C(=O)c3cc(OC)c(OC)c(OC)c3)ccc2OC)cc1`, for which the GI50 was 4.34 µM with NCI-H226 lung, 7.71 µM in the test on 786-0 renal, 8.82 µM with IGROV1 ovarian and 4.61 µM in the test with OVCAR-8 ovarian. Also, the TGI with NCI-H226 lung, in the test with 786-0 renal, with IGROV1 ovarian and with OVCAR-8 ovarian was greater than 100 µM in each case.
In the case of `CC(=O)OC[C@@H]1[C@H]2CC(=O)O[C@H]2C[C@H]1OC(C)=O`, the TGI with HCC-2998 colon, with UO-31 renal, with 786-0 renal, with IGROV1 ovarian, in the test on UACC-62 melanoma and with OVCAR-8 ovarian was greater than 100 µM in each case.
Consider `CC(C)(C)C(=O)C(c1ccc(-c2cscn2)cc1)c1ccc(-c2cscn2)cc1`, for which the TGI is greater than 100 µM with HCC-2998 colon; greater than 81.9 µM in the test with UO-31 renal; greater than 78.7 µM with NCI-H226 lung; 78.7 µM in the test with 786-0 renal; greater than 100 µM in the test with IGROV1 ovarian; greater than 71.4 µM in the test on UACC-62 melanoma. The compound also returned a TGI with OVCAR-8 ovarian greater than 100 µM.
For `CCOC(=O)NC(=O)c1cn(CCCOC(=O)CCCCCCCCC(=O)OCCCn2cc(C(=O)NC(=O)OCC)c(=O)[nH]c2=O)c(=O)[nH]c1=O`, the TGI was 44.8 µM with HCC-2998 colon; 84.5 µM in the test on 786-0 renal; 58.1 µM with IGROV1 ovarian; 69.1 µM in the test with UACC-62 melanoma; greater than 100 µM in the test on OVCAR-8 ovarian.
